Several values for one entry are separate records, joined by “and”; a condition that tells them apart may be missing. Identical values can stand only once. Entries after “also recorded” stand apart in the source; their conditions may differ. Like-named read-outs stand apart in the source and are kept apart here.
Experiments:
MTH1 [1] = target: T1, MTH1 (Homo sapiens, UniProt P36639); assay: MTH1 enzymatic inhibition assay (PPiLight inorganic pyrophosphate bioluminescent assay); type: biochemical; details: substrate dGTP 100 uM, recombinant MTH1 0.5 nM; for IC50: read-out: IC50 inhibiting MTH1 hydrolase activity
Description: (§1) The enzymatic hydrolysis of dGTP by purified human recombinant MTH1 to form dGMP and pyrophosphate was applied for screening purposes using a PPiLightTM inorganic pyrophosphate bioluminescent assay—according to published procedures. After shaking and color development, the plates were analyzed in a Victor 3 Microplate reader (PerkinElmer, Waltham, MA, USA) for luminescence. The inhibition assays were conducted using a series of dilutions of standard compounds and new MTH1 inhibitors. The IC50 values were determined by fitting a dose-response curve to the data points using nonlinear regression.

MTH1 [2] = target: T1, MTH1; assay: Competitive binding against [3H]TH287 in live U251MG cells; parameters: endogenous in cells; host or cells: U251MG glioblastoma cells
Description: The final concentration of the radioligand in each assay was 4 nM. […] After the reaction was completed, the cells were washed once with ice-cold PBS and the bound radioactivity was counted and analyzed as described above. Nonspecific binding was determined from cells treated with 10 µM TH086. Raclopride, a well-reported selective antagonist for dopamine D₂ receptors, was also used to validate the assay.
The values for Bns and B0 were constrained using experimentally derived values.
Data from competitive radioligand binding studies were transformed to determine the pseudo-Hill coefficient, n’H, defined as:(4) logBs/B0−Bs=n′HlogI−n′HlogIC50
n’H, which is the negative of the Hill slope, was readily determined from the plot of logBs/B0−Bs versus logI .

U251MG cells = assay: MTT cell viability assay; details: 72 h
Description: (§2) MTT assays were used to test cell toxicity of compounds. […] After incubation with MTT for 4 h at 37 °C, the culture medium was aspirated and 200 µL DMSO was added to each well to dissolve the formazan crystals, then the absorbance was measured at 540 nm using a Victor 3 Microplate reader (PerkinElmer, Waltham, MA, USA).

beta-tubulin = details: cited from earlier work
[3] = MicroPET imaging of normal mice with [11C]TH287; type: in vivo
Description: The Washington University Animal Studies Committee approved all procedures used for the mouse experiments described in the present study under ACS# 20,170,165 (approved on 9/1/2017). Overall care of the animals was consistent with The Guide for the Care and Use of Laboratory Animals from the National Research Council and the USDA Animal Care Resource Guide. Four male athymic nude mice ([…], 8 weeks old), purchased from Charles River Laboratories (Wilmington, MA, USA), were included for the preliminary microPET imaging evaluation of MTH1 in vivo. […] The imaging sessions were 1 h dynamic scans using the MicroPET® Focus 220 and Inveon scanners (Siemens Medical Solutions USA Molecular Imaging, Knoxville, TN, USA). Acquired list mode data were histogrammed into a 3D set of sinograms and binned to the following time frames: 5 × 60 s, 5 × 2 min, and 9 × 5 min. Sinogram data was then processed using a filter back-projection algorithm with attenuation and scatter corrections. […] The software Acquisition Sinogram Image PROcessing using IDL’s Virtual Machine^TM (ASIPro VM^TM) (Siemens Medical Solutions USA Molecular Imaging, Knoxville, TN, USA) was used to draw ROI and obtain the radioactivity uptake (nCi/c.c.) curve over the time course of the scan, and the uptake data were further normalized by the injected radioactivity dose to get %I.D./cc.

MTH1 [4] = target: T1, MTH1; details: 'it has been reported', no reference given; cited from earlier work
[5] = mouse; N-dealkylation of the aminomethyl substituent, major metabolite TH586; no reference given; cited from earlier work
in vitro = details: human
Description: as §2

MTH1 [6] = target: T1, MTH1; assay: Competitive inhibition (kinetics) assay of MTH1 hydrolase; type: biochemical
Description: as §1

[7] = human; N-dealkylation of the aminomethyl substituent, major metabolite TH586; no reference given; cited from earlier work

CCN1CCC[C@H]1CNC(=O)c1c(O)c(Cl)cc(Cl)c1OC [Raclopride]
IC50 inhibiting MTH1 hydrolase activity (MTH1 [1]): no inhibition | IC50 (MTH1 [1]): > 10000 nM | Ki (competitive binding) (MTH1 [2]; U251MG cells, 4 nM [3H]TH287, Cheng-Prusoff): No binding was detected | Ki (MTH1 [2]; read-out: Ki (competitive binding)): > 10000 nM

C[C@H](Oc1cc(-c2cnn(C3CCNCC3)c2)cnc1N)c1c(Cl)ccc(F)c1Cl [(S)-crizotinib]
cell viability compared with vehicle control (U251MG cells; 10 µM): 92.95% | cell viability compared with vehicle control (U251MG cells; 30 µM): 0.14%

Nc1nc(NC2CC2)cc(-c2cccc(Cl)c2Cl)n1 [TH588]
concentration inhibiting in vitro beta-tubulin polymerization (beta-tubulin): higher than 30 µM

[11CH3]Nc1cc(-c2cccc(Cl)c2Cl)nc(N)n1 [[^11C]TH287]
uptake and clearance from brain, heart and kidney ([3]; ~0.4 mCi via tail vein, 1 h dynamic scan): gets into the brain with rapid clearance from the brain, kidney, and heart; also recorded: high initial uptake and fast clearance; also recorded: rapid brain uptake and fast clearance

Nc1cc(-c2cccc(Cl)c2Cl)nc(N)n1 [TH586]
IC50 (MTH1 [4]): 77 nM

CNc1cc(-c2cccc(Cl)c2Cl)nc(N)n1 [TH287, 6-(2,3-Dichlorophenyl)-N4-methylpyrimidine-2,4-diamine]
metabolism in liver microsomes [5]: rapidly metabolized | IC50 (MTH1 [1]): 2.2 nM | concentration inhibiting in vitro beta-tubulin polymerization (beta-tubulin): higher than 30 µM | Ki (MTH1 [2]): 3.04 ± 0.14 nM | pseudo-Hill coefficient n'H (MTH1 [2]; U251MG cells): 0.88 and 0.88 ± 0.06 | blood-brain barrier penetration ([3]; microPET): penetrates the blood-brain barrier of mice with a fast clearance | viability at 72 h, 30 µM (in vitro): 88.9% | Kmapp of MTH1 (MTH1 [6]; 2.5 nM TH287 present (Km 305 µM without)): 892 µM | Ki (MTH1 [6]; MTH1 0.5 nM, dGTP 0 to 5000 uM, read-out: Ki from kinetics assays): ~1.3 nM and 1.3 nM | metabolism in liver microsomes [7]: rapidly metabolized
